# Measurements from paper PMC3414753, “Oleamide activates peroxisome proliferator-activated receptor gamma (PPARγ) in vitro” (2012).
# pIC50: −log10 of the molar value.
# Legend:
# [1] = target: T1, PPARγ (Homo sapiens, UniProt P37231); assay: biochemical; format: binding
# T1 construct: gene PPARG
# T1 sequence (P37231 232-505 limits assumed): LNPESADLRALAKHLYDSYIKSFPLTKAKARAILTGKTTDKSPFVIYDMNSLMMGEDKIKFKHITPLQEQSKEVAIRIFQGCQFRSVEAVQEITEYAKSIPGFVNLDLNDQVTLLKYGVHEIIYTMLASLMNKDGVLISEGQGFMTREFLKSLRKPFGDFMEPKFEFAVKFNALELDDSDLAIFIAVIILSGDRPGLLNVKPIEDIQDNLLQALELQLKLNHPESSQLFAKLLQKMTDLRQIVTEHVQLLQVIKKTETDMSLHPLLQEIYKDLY
# [2] = target: T2, PPARβ (Homo sapiens, UniProt Q03181); assay: LanthaScreen TR-FRET competitive binding assay; displacement incomplete at […]
# T2 construct: gene PPARD
# T2 sequence (Q03181 171-441 limits assumed): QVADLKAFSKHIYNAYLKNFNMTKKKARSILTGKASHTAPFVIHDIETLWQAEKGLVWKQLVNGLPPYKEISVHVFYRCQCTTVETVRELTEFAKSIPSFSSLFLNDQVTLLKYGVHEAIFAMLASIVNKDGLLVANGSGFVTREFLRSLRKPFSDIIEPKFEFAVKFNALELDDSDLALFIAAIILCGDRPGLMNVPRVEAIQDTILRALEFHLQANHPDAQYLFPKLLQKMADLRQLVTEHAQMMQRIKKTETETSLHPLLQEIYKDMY
# [3] = target: T3, PPARα (Homo sapiens, UniProt Q07869); assay: as above
# T3 construct: gene PPARA
# T3 sequence (Q07869 196-468 limits assumed): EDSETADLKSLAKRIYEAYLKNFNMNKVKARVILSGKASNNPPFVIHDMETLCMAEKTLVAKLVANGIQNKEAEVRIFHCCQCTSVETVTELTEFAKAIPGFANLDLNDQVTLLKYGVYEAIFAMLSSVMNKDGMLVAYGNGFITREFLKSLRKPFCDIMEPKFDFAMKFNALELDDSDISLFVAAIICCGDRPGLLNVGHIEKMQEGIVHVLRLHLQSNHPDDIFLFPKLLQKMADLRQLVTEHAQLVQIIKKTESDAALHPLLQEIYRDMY
smiles,measurement,setting,value
"CCCCCCCC/C=C\CCCCCCCC(N)=O [ODA, (Z)-octadec-9-enamide]",pIC50,[1],~4.42
same,LanthaScreen TR-FRET competitive binding assay; displacement incomplete at 100 μ,[2],"ODA evoked concentration-dependent displacement of fluorescent ligand from each receptor binding site, displacement at PPARα and PPARβ was incomplete"
same,LanthaScreen TR-FRET competitive binding assay; displacement incomplete at 100 μ,[3],"ODA evoked concentration-dependent displacement of fluorescent ligand from each receptor binding site, displacement at PPARα and PPARβ was incomplete"
